Where a SMILES comes first, the peptide text is derived from it.
Tests used:
Type in all cases: cell-based
[1] = system: standard ESKAPE strains; details: broth dilution (CLSI), MHB, 37 °C, 16–20 h; range over all standard strains
Description: The ESKAPE pathogens represent the main threat to public health concerning antimicrobial resistance. Therefore, we first evaluated the antimicrobial activities of Ctriporin and its analogs against the standard ESKAPE strains. The minimum inhibitory concentration (MIC) was chosen as the index for the evaluation of each peptide’s activity. […] Note that the MICs of CM4 and CM7 are 4–32 and 8–32 μg/mL, respectively, indicating the existence of significant bacterial species deviations for the antimicrobial activity of these peptides. In addition, the replacement of specific residues, especially Pro^7, may harm the antimicrobial activities of the peptide.
(§1) The standard strains, including S. aureus ATCC29213 and ATCC25923, E. faecalis ATCC29212, E. coli ATCC25922 and ATCC35218, A. baumannii ATCC19606, K. pneumoniae ATCC700603, and P. aeruginosa ATCC27853, were purchased from the China Center of Type Culture Collection (CCTCC). The clinical strains of the ESKAPE pathogens were isolated from the affiliated hospitals of Hubei University of Medicine. All of them were stored at −80 °C before use. The drug sensitivities of the clinical strains were determined by the Kirby–Bauer test.
(§2) The MICs were determined using the broth dilution method according to the guidelines of the Clinical and Laboratory Standards Institute (CLSI), as described in the previous studies. Briefly, the bacterial cells were incubated in Mueller–Hinton broth (MHB, Oxoid, Basingstoke, UK) at 37 °C and 150 rpm to the mid-growth phase and diluted to achieve a final concentration of 5 × 10^5 colony-forming units per milliliter (CFU/mL). Then, the cells were mixed with each peptide in different concentrations (1, 2, 4, 8, 16, 32, and 64 μg/mL). […] All experiments were repeated at least three times.

[2] = system: S. aureus ATCC25923; test: MIC, broth dilution, standard strain; details: broth dilution (CLSI), MHB, 5 × 10^5 CFU/mL, 37 °C, 16–20 h, OD630, repeated at least three times
Description: as §1, §2

[3] = system: E. coli ATCC35218; test: MIC, broth dilution, standard strain; details: broth dilution (CLSI), MHB, 5 × 10^5 CFU/mL, 37 °C, 16–20 h, OD630, repeated at least three times
Description: as §1, §2

[4] = system: K. pneumoniae ATCC700603; test: MIC, broth dilution, standard strain; details: broth dilution (CLSI), MHB, 5 × 10^5 CFU/mL, 37 °C, 16–20 h, OD630, repeated at least three times
Description: as §1, §2

[5] = system: S. aureus ATCC29213; test: MIC, broth dilution, standard strain; details: broth dilution (CLSI), MHB, 5 × 10^5 CFU/mL, 37 °C, 16–20 h, OD630, repeated at least three times
Description: as §1, §2

[6] = system: E. faecium ATCC29212; test: MIC, broth dilution, standard strain; details: broth dilution (CLSI), MHB, 5 × 10^5 CFU/mL, 37 °C, 16–20 h, OD630, repeated at least three times
Description: as §1, §2

[7] = system: A. baumannii ATCC19606; test: MIC, broth dilution, standard strain; details: broth dilution (CLSI), MHB, 5 × 10^5 CFU/mL, 37 °C, 16–20 h, OD630, repeated at least three times
Description: as §1, §2

[8] = system: E. coli ATCC25922; test: MIC, broth dilution, standard strain; details: broth dilution (CLSI), MHB, 5 × 10^5 CFU/mL, 37 °C, 16–20 h, OD630, repeated at least three times
Description: as §1, §2

[9] = system: P. aeruginosa ATCC27853; test: MIC, broth dilution, standard strain; details: broth dilution (CLSI), MHB, 5 × 10^5 CFU/mL, 37 °C, 16–20 h, OD630, repeated at least three times
Description: as §1, §2

[10] = system: clinical isolates of CRE and multidrug-resistant (MDR) A. baumannii; details: broth dilution (CLSI), MHB
Description: To further evaluate the antimicrobial potential of CM5 and CM6, the MICs of these two peptides, as well as the parent peptide Ctriporin, were determined against clinical antibiotic-resistant isolates of ESKAPE strains. […] Note that CRE and MDR A. baumannii are listed at the top of the pathogens threatening public health. Compared with the parent peptide Ctriporin, eight to sixteen times improvement in terms of antimicrobial activity was obtained through our peptide design strategy.
as §2

[11] = system: S. aureus 9124; test: MIC, broth dilution, clinical isolate; details: MRSA clinical isolate; broth dilution (CLSI), MHB, 5 × 10^5 CFU/mL, 37 °C, 16–20 h, OD630
Description: as §1, §2

[12] = system: S. capitis 3255; test: MIC, broth dilution, clinical isolate; details: MRSC clinical isolate; broth dilution (CLSI), MHB, 5 × 10^5 CFU/mL, 37 °C, 16–20 h, OD630
Description: as §1, §2

[13] = system: E. coli 2678; test: MIC, broth dilution, clinical isolate; details: ESBL clinical isolate; broth dilution (CLSI), MHB, 5 × 10^5 CFU/mL, 37 °C, 16–20 h, OD630
Description: as §1, §2

[14] = system: K. pneumoniae 9126; test: MIC, broth dilution, clinical isolate; details: CRE clinical isolate; broth dilution (CLSI), MHB, 5 × 10^5 CFU/mL, 37 °C, 16–20 h, OD630
Description: as §1, §2

[15] = system: S. epidermidis 9092; test: MIC, broth dilution, clinical isolate; details: MRSE clinical isolate; broth dilution (CLSI), MHB, 5 × 10^5 CFU/mL, 37 °C, 16–20 h, OD630
Description: as §1, §2

[16] = system: A. baumannii 19295; test: MIC, broth dilution, clinical isolate; details: CRE/MDR clinical isolate; broth dilution (CLSI), MHB, 5 × 10^5 CFU/mL, 37 °C, 16–20 h, OD630
Description: as §1, §2

[17] = system: E. faecium 898; test: MIC, broth dilution, clinical isolate; details: MDR clinical isolate; broth dilution (CLSI), MHB, 5 × 10^5 CFU/mL, 37 °C, 16–20 h, OD630
Description: as §1, §2

[18] = system: P. aeruginosa 9014; test: MIC, broth dilution, clinical isolate; details: CRE/MDR clinical isolate; broth dilution (CLSI), MHB, 5 × 10^5 CFU/mL, 37 °C, 16–20 h, OD630
Description: as §1, §2

[19] = system: S. aureus 891; test: MIC, broth dilution, clinical isolate; details: MRSA clinical isolate; broth dilution (CLSI), MHB, 5 × 10^5 CFU/mL, 37 °C, 16–20 h, OD630
Description: as §1, §2

[20] = system: A. baumannii 19618; test: MIC, broth dilution, clinical isolate; details: CRE/MDR clinical isolate; broth dilution (CLSI), MHB, 5 × 10^5 CFU/mL, 37 °C, 16–20 h, OD630
Description: as §1, §2

[21] = system: S. epidermidis 6943; test: MIC, broth dilution, clinical isolate; details: MRSE clinical isolate; broth dilution (CLSI), MHB, 5 × 10^5 CFU/mL, 37 °C, 16–20 h, OD630
Description: as §1, §2

[22] = system: A. baumannii 19462; test: MIC, broth dilution, clinical isolate; details: CRE/MDR clinical isolate; broth dilution (CLSI), MHB, 5 × 10^5 CFU/mL, 37 °C, 16–20 h, OD630
Description: as §1, §2

[23] = system: E. coli 2687; test: MIC, broth dilution, clinical isolate; details: ESBL clinical isolate; broth dilution (CLSI), MHB, 5 × 10^5 CFU/mL, 37 °C, 16–20 h, OD630
Description: as §1, §2

[24] = system: human red blood cells (hRBC); test: Hemolytic activity determination; details: 2% (v/v) hRBC, 37 °C, 1 h; for curve of hemolysis% vs. peptide concentration (Figure 2): 0–512 μg/mL peptide, compared in words; for Hemolysis% at 256 μg/mL: 256 μg/mL peptide, OD540, 1% Triton X-100 = 100%, average ± standard error of three independent experiments
Description: Figure 2 Hemolytic activities of Ctriporin and its analogs against human red blood cells (hRBC). Hemolytic activities of Ctriporin (solid circle), CM1 (open circle), CM2 (open square), CM3 (upward triangle), CM4 (downward triangle), CM5 (half solid circle), CM6 (half solid square), and CM7 (half solid triangle), were measured against 2% (v/v) human red blood cells. The peptide concentrations are 0, 2, 4, 8, 16, 32, 64, 128, 256, and 512 μg/mL. The cells treated with 1% Triton X-100 were treated as 100% hemolysis. All experiments were repeated three times, and the data shown are the average ± standard error.
The hemolytic activities of the peptides were determined against human red blood cells (hRBCs). As described, sodium citrate-anticoagulated hRBCs were washed three times with 0.9% sodium chloride and diluted to a final concentration of 4% (v/v). Then, an equal volume of hRBC solutions was mixed with an equal volume of each peptide in a series of concentrations (0, 2, 4, 8, 16, 32, 64, 128, 256, and 512 μg/mL). After co-incubation at 37 °C for 1 h, the degree of hemolysis of the peptides was determined by detecting the release of hemoglobin from the damaged hRBCs by measuring the optical density at 540 nm (OD540). hRBCs in 0.9% sodium chloride and 1% Triton X-100 were considered 0% and 100% hemolysis, respectively. The results shown are the average ± standard error of data derived from three independent experiments. The percent hemolysis was calculated according to the following equation [53, 54]:Hemolysis (%) = 100 × (Asample − Ablank)/(Apositive − Ablank)

SMILES | MICs against the ESKAPE pathogens (range over the standard strains of Table 2) [1] | MICs [2] | MICs [3] | MICs [4] | MICs [5] | MICs [6] | MICs [7] | MICs [8] | MICs [9] | MIC values against clinical isolates of CRE and MDR A. baumannii [10] | MICs [11] | MICs [12] | MICs [13] | MICs [14] | MICs [15] | MICs [16] | MICs [17] | MICs [18] | MICs [19] | MICs [20] | other results
CC[C@H](C)[C@H](NC(=O)[C@H](C)NC(=O)[C@H](CCCCN)NC(=O)[C@@H]1CCCN1C(=O)[C@@H](NC(=O)[C@H](CC(C)C)NC(=O)[C@H](CCCCN)NC(=O)[C@H](Cc1c[nH]c2ccccc12)NC(=O)[C@H](CC(C)C)NC(=O)[C@@H](N)Cc1ccccc1)[C@@H](C)CC)C(=O)N[C@@H](CCCCN)C(=O)N[C@@H](CCCCN)C(=O)N[C@H](C(=O)N[C@@H](CCCCN)C(=O)N[C@@H](CO)C(=O)N[C@@H](CC(C)C)C(=O)N[C@H](C(=O)N[C@@H](CCCCN)C(=O)N[C@@H](CCCCN)C(N)=O)[C@@H](C)CC)C(C)C [CM5] (H-FLWKLIPKAIKKVKSLIKK-NH2) | 2 to 8 µg/mL | 4 µg/mL | 4 µg/mL | 8 µg/mL | 4 µg/mL | 8 µg/mL | 2 µg/mL | 8 µg/mL | 4 µg/mL | 2 µg/mL | 8 µg/mL | 2 µg/mL | 8 µg/mL | 16 µg/mL | 4 µg/mL | 2 µg/mL | 4 µg/mL | 8 µg/mL | 4 µg/mL | 2 µg/mL | MICs [21]: 4 µg/mL; MICs [22]: 2 µg/mL; MICs [23]: 8 µg/mL; curve of hemolysis% vs. peptide concentration (Figure 2) [24]: decreased dramatically compared with Ctriporin; Hemolysis% at 256 μg/mL [24]: 9.8 ± 0.6%
CC[C@H](C)[C@H](NC(=O)[C@H](C)NC(=O)[C@H](CCCCN)NC(=O)[C@@H]1CCCN1C(=O)[C@@H](NC(=O)[C@H](CC(C)C)NC(=O)[C@H](CCCCN)NC(=O)[C@H](Cc1c[nH]c2ccccc12)NC(=O)[C@H](CC(C)C)NC(=O)[C@@H](N)Cc1ccccc1)[C@@H](C)CC)C(=O)N[C@@H](CCCCN)C(=O)N[C@@H](CCCCN)C(=O)N[C@H](C(=O)N[C@@H](CCCCN)C(=O)N[C@@H](CCCCN)C(=O)N[C@@H](CC(C)C)C(=O)N[C@H](C(=O)N[C@@H](CCCCN)C(=O)N[C@@H](CCCCN)C(N)=O)[C@@H](C)CC)C(C)C [CM6] (H-FLWKLIPKAIKKVKKLIKK-NH2) | 4 to 8 µg/mL | 8 µg/mL | 8 µg/mL | 8 µg/mL | 8 µg/mL | 8 µg/mL | 4 µg/mL | 8 µg/mL | 4 µg/mL | 2 µg/mL | 8 µg/mL | 2 µg/mL | 8 µg/mL | 16 µg/mL | 4 µg/mL | 2 µg/mL | 4 µg/mL | 8 µg/mL | 8 µg/mL | 2 µg/mL | MICs [21]: 4 µg/mL; MICs [22]: 2 µg/mL; MICs [23]: 8 µg/mL; curve of hemolysis% vs. peptide concentration (Figure 2) [24]: decreased dramatically compared with Ctriporin; Hemolysis% at 256 μg/mL [24]: 8.1 ± 1.9%

— PMC10974533, “Cationicity Enhancement on the Hydrophilic Face of Ctriporin Significantly Reduces Its Hemolytic Activity and Improves the Antimicrobial Activity against Antibiotic-Resistant ESKAPE Pathogens” (Toxins, 2024)
